From patent US8993562B2, “Imidazo[1,2-b]pyridazines, processes, uses, intermediates and compositions” (Ferrer Internacional, S.A., priority 2006, dated 2015)

How the values were obtained:
[1] = tested on: α1-GABAA receptor; test: Ligand-binding assay, radiolabeled flumazenil competition, cerebellum membranes; settings: rat cerebellum membranes, radiolabeled flumazenil 1 nM
Description: (§1) a) Ligand-binding Assays. Determination of the Affinity of Test Compounds for α1- and α2-GABAA Receptor
(§2) Male Sprague-Dawley rats weighing 200-250 g at the time of experiment were used. After decapitation of the animal, the cerebellum (tissue that mostly contains α1-GABAA receptor) and spinal cord (tissue that mostly contains α2-GABAA receptor) were removed. The membranes were prepared according to the method by J. Lameh et al. (Prog. Neuro-Psychopharmacol. Biol. Psychiatry, 24, 979-991, 2000) and H. Noguchi et al. (Eur J Pharm, 434, 21-28, 2002) with slight modifications. Once the tissues weighed, they were suspended in 50 mM Tris.HCl (pH 7.4), 1:40 (v/v), or sucrose 0.32 M in the case of spinal cord, homogenized and then centrifuged at 20000 g for 10 minutes at 7° C. The resulting pellet was resuspended under the same conditions and centrifuged again. The pellet was finally resuspended on a minimum volume and kept at −80° C. overnight. A slight modification was used in the case of spinal cord at the first centrifugation step. Centrifugation speed was at 1000 g and the supernatant was collected instead of discarded as in cerebellum. Then, supernatant was centrifuged at 20000 g and resuspended twice more under the same conditions described above for cerebellum. On the next day, the process was repeated until the final pellet was resuspended at a ratio of 1:10 (v/v) in the case of cerebellum and at a ratio of 1:5 (v/v) in the case of spinal cord.
(§3) Affinity was determined by competitive tests using radiolabeled flumazenil as ligand. The tests were performed according to the methods described by S. Arbilla et al. (Eur. J. Pharmacol., 130, 257-263, 1986); and Y. Wu et al. (Eur. J. Pharmacol., 278, 125-132, 1995) using 96-well microtiter plates. The membranes containing the study receptors, flumazenil (radiolabeling at a final concentration of 1 nM) and ascending concentrations of test compounds (in a total volume of 230 μl in 50 mM [pH 7.4] Tris.HCl buffer) were incubated. Simultaneously, the membranes were only incubated with the radiolabeled flumazenil (total binding, 100%) and in the presence of an elevated concentration of unradiolabeled flumazenil (non-specific binding, % estimation of radiolabeled ligand). The reactions started on adding the radiolabeled ligand followed by incubation for 60 minutes at 4° C. At the end of the incubation period, 200 μl of reaction were transferred to a multiscreen plate (Millipore) and filtered using a vacuum manifold and then washed three times with cold test buffer. The multiscreen plates were equipped with a GF/B filter that retained the membranes containing the receptors and the radiolabeled ligand which had been bound to the receptors. After washing, the plates were left till dry. Once dried, scintillation liquid was added and left under stirring overnight. The next day the plates were counted using a Perkin-Elmer Microbeta scintillation counter.
(§4) For analysis of the results the percentage of specific binding for every concentration of test compound was calculated as follows: specific binding−(X−N/T−N)×100 where, X: amount of bound ligand for every concentration of compound. T: total binding, maximum amount bound to the radiolabeled ligand. N: non-specific binding, amount of radiolabeled ligand bound in a non-specific way irrespective of the receptor used.
(§5) Every concentrations of compound were tested in triplicate and their mean values were used to determine the experimental values of % specific binding versus the concentration of compound. Affinity data are expressed as % inhibition at 10^−5M and 10^−7M concentrations.

[2] = tested on: α2-GABAA receptor; test: Ligand-binding assay, radiolabeled flumazenil competition, spinal cord membranes; settings: rat spinal cord membranes, radiolabeled flumazenil 1 nM
Description: as §1, §2, §3, §4, §5

[3] = tested on: male CD1 mice; test: In vivo predictive sedation-hypnosis test (traveled distance); settings: Mus musculus, ip, 0.5 h, traveled distance over 30 min versus control, read-out: % inhib motor activity; for inhibition in vivo at 0.98 µmol/kg: 0.98 μmol/kg intraperitoneal; for inhibition in vivo at 98 µmol/kg: 98.0 μmol/kg intraperitoneal
Description: b) In Vivo Determination of Predictive Sedative-hypnotic Action
The in vivo effects of these compounds were assessed by a predictive sedation-hypnosis test in mice (D. J. Sanger et al., Eur. J. Pharmacol., 313, 35-42, 1996; and G. Griebel et al., Psychopharmacology, 146, 205-213, 1999).
Groups of 5-8 male CD1 mice, weighing 22-26 g at the time of test, were used. […] Compounds were suspended in 0.25% agar with one drop of Tween in a volume of 10 mL/kg. Control animals were given the vehicle alone. Using a Smart System (Panlab, S. L., Spain) the traveled distance in cm is recorded for each mouse at 5-minutes intervals during a period of 30 minutes after dosing. The inhibition percentage of traveled distance of treated animals versus control animals (the first 5 minutes were discarded) was calculated.

| Compound | % inhib 10^−5 M, affinity for the α1-subunit of the GABAA receptor [1] | % inhib 10^−7 M, affinity for the α1-subunit of the GABAA receptor [1] | % inhib 10^−5 M, affinity for the α2-subunit of the GABAA receptor [2] | % inhib 10^−7 M, affinity for the α2-subunit of the GABAA receptor [2] | inhibition in vivo at 0.98 µmol/kg [3] | inhibition in vivo at 98 µmol/kg [3] |
| --- | --- | --- | --- | --- | --- | --- |
| CCCN(CCC)C(=O)Cc1c(-c2ccc(F)cc2)nc2ccc(OC)nn12 [Example 41, 2-[2-(4-Fluoro-phenyl)-6-methoxy-imidazo[1,2-b]pyridazin-3-yl]-N,N-dipropyl-acetamide] | 99.8% | 75.4% | 85.3% | 17.0% | 15.7% | 91.2% |
| COc1ccc(-c2nc3ccc(C)nn3c2CC(=O)N2CCCCC2)cc1 [Example 73, 2-[2-(4-Methoxy-phenyl)-6-methyl-imidazo[1,2-b]pyridazin-3-yl]-1-piperidin-1-yl-ethanone] | 99.9% | 76.5% | 77.0% | 20.6% | – | 94.1% |
| COc1ccc2nc(-c3ccc(F)cc3)c(CC(=O)N3CCCCC3)n2n1 [Example 65, 2-[2-(4-Fluoro-phenyl)-6-methoxy-imidazo[1,2-b]pyridazin-3-yl]-1-piperidin-1-yl-ethanone] | 99.5% | 58.5% | 78.5% | 16.3% | – | 95.5% |
| Cc1ccc(-c2nc3ccc(C)nn3c2CC(=O)NN2CCCCC2)cc1 [Example 106, 2-(6-Methyl-2-p-tolyl-imidazo[1,2-b]pyridazin-3-yl)-N-piperidin-1-yl-acetamide] | 99.5% | 53.7% | – | – | – | 94% |
| CCCN(CCC)C(=O)Cc1c(-c2ccc(F)cc2)nc2ccc(OCC)nn12 [Example 43, 2-[6-Ethoxy-2-(4-fluoro-phenyl)-imidazo[1,2-b]pyridazin-3-yl]-N,N-dipropyl-acetamide] | 99.5% | 49.9% | 80.3% | 20.1% | – | 95.7% |
| CCCN(CCC)C(=O)Cc1c(-c2ccccc2)nc2ccc(C)nn12 [Example 35, 2-(6-Methyl-2-phenyl-imidazo[1,2-b]pyridazin-3-yl)-N,N-dipropyl-acetamide] | 100.2% | 97.5% | 92.5% | 57.9% | 6.76% | 80.6% |
| Cc1ccc(-c2nc3ccc(C)nn3c2CC(=O)Nc2ccc3ccccc3n2)cc1 [Example 94, 2-(6-Methyl-2-p-tolyl-imidazo[1,2-b]pyridazin-3-yl)-N-quinolin-2-yl-acetamide] | 100.1% | 65.1% | – | – | – | 93.5% |
| Cc1ccc(-c2nc3ccc(C)nn3c2CC(=O)NC2CC2)cc1 [Example 93, N-Cyclopropyl-2-(6-methyl-2-p-tolyl-imidazo[1,2-b]pyridazin-3-yl)-acetamide] | 100.0% | 78.2% | – | – | – | 93.2% |
| CCOc1ccc2nc(-c3ccc(F)cc3)c(CC(=O)N3CCCCC3)n2n1 [Example 67, 2-[6-Ethoxy-2-(4-fluoro-phenyl)-imidazo[1,2-b]pyridazin-3-yl]-1-piperidin-1-yl-ethanone] | 98.9% | 42.2% | 83.7% | 8.8% | – | 90.8% |
| CCN(CC)C(=O)Cc1c(-c2ccc(OC)cc2)nc2ccc(OC)nn12 [Example 75, N,N-Diethyl-2-[6-methoxy-2-(4-methoxy-phenyl)-imidazo[1,2-b]pyridazin-3-yl]-acetamide] | 99.4% | 52.1% | 68.8% | 9.3% | – | 92.6% |
| Cc1ccc(NC(=O)Cc2c(-c3ccc(C)cc3)nc3ccc(C)nn23)cc1 [Example 87, 2-(6-Methyl-2-p-tolyl-imidazo[1,2-b]pyridazin-3-yl)-N-p-tolyl-acetamide] | 99.3% | 57.2% | – | – | – | 90.7% |
| Cc1ccc(-c2nc3ccc(C)nn3c2CC(=O)NC2CCCC2)cc1 [Example 91, N-Cyclopentyl-2-(6-methyl-2-p-tolyl-imidazo[1,2-b]pyridazin-3-yl)-acetamide] | 99.1% | 45.8% | – | – | – | 93% |
| CCN(CC)C(=O)Cc1c(-c2ccc(OC)cc2)nc2ccc(C)nn12 [Example 70, N,N-Diethyl-2-[2-(4-methoxy-phenyl)-6-methyl-imidazo[1,2-b]pyridazin-3-yl]-acetamide] | 99.9% | 84.5% | 80.3% | 23.6% | – | 87% |
| CCCN(CCC)C(=O)Cc1c(-c2ccccc2)nc2ccc(OC)nn12 [Example 26, 2-(6-Methoxy-2-phenyl-imidazo[1,2-b]pyridazin-3-yl)-N,N-dipropyl-acetamide] | 100.0% | 73.5% | 84.5% | 27.4% | 19.2% | 91.5% |
| Cc1ccc(-c2nc3ccc(C)nn3c2CC(=O)Nc2nccs2)cc1 [Example 83, 2-(6-Methyl-2-p-tolyl-imidazo[1,2-b]pyridazin-3-yl)-N-thiazol-2-yl-acetamide] | 99.6% | 97.6% | 93.1% | 57.7% | – | 88.9% |
| Cc1ccc(-c2nc3ccc(C)nn3c2CC(=O)Nc2ccccc2)cc1 [Example 86, 2-(6-Methyl-2-p-tolyl-imidazo[1,2-b]pyridazin-3-yl)-N-phenyl-acetamide] | 99.5% | 75.9% | 80.9% | 23.0% | – | 92.6% |
